Measured values from patent publication US9598386B2, “Immunomodulatory compounds” (University of Strathclyde, priority 2012, dated 2017).
Structures can show the parent of a compound that is named as a salt.

Tests used:
[1] = system: mouse model of asthma, ovalbumin-induced airway hypersensitivity; test: Ovalbumin-induced airway hypersensitivity (OAH) mouse model of asthma; assay type: in vivo; conditions: for lung pathology (H & E staining of lung tissue) / eosinophil influx into the lungs (BALF): prophylactic treatment; for lung pathology (H & E staining of lung tissue): FIG. 3A; for eosinophil influx into the lungs (BALF): FIG. 3B; for neutrophil influx into the lungs (BALF): therapeutic treatment, FIG. 3C
Protocol: As a consequence of the mast cell findings S3 and […] were tested in a mouse model of asthma, ovalbumin-induced airway hypersensitivity (OAH). As can be shown in FIG. 3, both sulfones are able to inhibit infiltration of disease-causing eosinophils into the lungs and also overall lung pathology.

[2] = system: DBA/1 mice undergoing CIA; test: Collagen-induced arthritis (CIA) mouse model of rheumatoid arthritis; assay type: in vivo; conditions: prophylactic treatment, 1 μg/dose at d-2, d0 and d21, versus PBS; FIG. 1
Protocol: DBA/1 mice undergoing CIA (PBS) were treated with SMAs S3 (1 μg/dose; S3-1) and S5 (1 μg/dose; S5-1) at d-2, d0 and d21 and monitored every second day for (A) articular score; (B) paw swelling; (C) incidence of CIA (articular score>2) and (D) incidence of severe pathology (articular score >4). Data in A & B are presented as mean values±SEM where PBS, n=28, S3, n=14 and S5, n=13 individual mice, except at d33 and d35 where PBS, n=14, S3, n=7 and S5, n=7 individual mice, and analysis was by Mann-Whitney test and *p<0.05, **p<0.01 and ***p<0.001 where blue * and black * represent PBS versus S3-1 and S5-1, respectively.

[3] = system: bone marrow-derived mast cells (BMM); test: Mast cell cytokine release after FcεRI crosslinking; assay type: cell-based; conditions: pre-treated during IgE sensitisation, 24 h after FcεRI crosslinking; FIG. 2
Protocol: (§1) Peritoneal-derived mast cells (PDMC; panels A & D) or bone marrow-derived mast cells (BMM; B, C, E & F) were pre-treated with the indicated concentrations of S3 and S5 (μg/ml) during the IgE sensitisation phase and then degranulation measured 1 h (A & D) following crosslinking of the IgE-bound FcεRI receptors (XL) or not (Basal). Alternatively TNFα (B & E) or IL-6 (C & F) release was measured 24 h following FcεRI crosslinking. Data are presented as means±SD where n=3 and analysis is by 1-way ANOVA and Newman-Keuls post test where ***p<0.001.
(§2) S3 and S5 were also tested for their effects on another immune system cell type, the mast cell. Similar to macrophages, activation of mast cells for example via the high-affinity receptor for IgE results in degranulation, resulting in release of inflammatory mediators, and secretion of various cytokines.

[4] = system: Peritoneal-derived mast cells (PDMC); test: Mast cell degranulation after FcεRI crosslinking; assay type: cell-based; conditions: pre-treated during IgE sensitisation, measured 1 h after FcεRI crosslinking; FIG. 2
Protocol: as §1, §2

Row | SMILES | melting point | also measured
1 | C[N+](C)(C)CCS(=O)(=O)Cc1ccc(Br)cc1 (as salt: methane sulfonate) [S1, N,N.N-trimethyl-2-1(4-bromobenzyl)sulfonyl{ethanaminiummethane sulfonate] | 187 to 188 °C | 
2 | CN(C)CCS(=O)(=O)Cc1ccc(Br)cc1 [S3, N-{2-[(4-Bromobenzyl)sulfonyl]ethyl}-N,N-dimethylamine] | 58 to 60 °C | lung pathology (H & E staining of lung tissue) [1]: inhibits lung pathology; eosinophil influx into the lungs (BALF) [1]: inhibits; neutrophil influx into the lungs (BALF) [1]: inhibits neutrophil influx; development of arthritis (articular score, paw swelling, incidence) [2]: significantly suppressed the development of arthritis; secretion of IL-6 by mast cells [3]: inhibiting secretion; secretion of TNF-α by mast cells [3]: inhibiting secretion; mast cell degranulation [4]: suppressing degranulation
3 | Cc1ccc(CS(=O)(=O)CCN(C)C)cc1 [S4, N,N-Di methyl-2-[(4-methylbenzyl)sulfonyl]ethanamine] | 68 to 70 °C | 
4 | Cc1ccc(CS(=O)(=O)CC[N+](C)(C)C)cc1.[I-] [S5, N,N,N-trimethyl-2-[(4-methylbenzyl)sulfonyl]ethanaminium iodide] | 212 to 214 °C | lung pathology (H & E staining of lung tissue) [1]: inhibits lung pathology; eosinophil influx into the lungs (BALF) [1]: inhibits; neutrophil influx into the lungs (BALF) [1]: inhibits neutrophil influx; development of arthritis (articular score, paw swelling, incidence) [2]: significantly suppressed the development of arthritis; secretion of IL-6 by mast cells [3]: inhibiting secretion; secretion of TNF-α by mast cells [3]: inhibiting secretion; mast cell degranulation [4]: suppressing degranulation
5 | Cc1ccc(CS(=O)(=O)CCN2CCCC2)cc1 [S7, 1-(2-[(4-Methylbenzyl)sulfonyl]ethyl)pyrrolidine] | 84 to 86 °C | 
6 | Cc1ccc(CS(=O)(=O)CC[N+]2(C)CCCC2)cc1.[I-] [S8, 1-Methyl-1-{2-[(4-methylbenzyl)sulfonyl]ethyl}pyrrolidinium iodide] | 214 to 216 °C | 
7 | O=S(=O)(CCN1CCCC1)Cc1ccc(Br)cc1 [S9, 1-{2-[(4-bromobenzyl}sulfonyl]ethyl}pyrrolidine] | 90 to 92 °C | 
8 | C[N+]1(CCS(=O)(=O)Cc2ccc(Br)cc2)CCCC1.[I-] [S10, 1-Methyl-1-{2-[(4-bromobenzyl)sulfonyllethyl]}pyrrolidinium iodide] | 196 to 198 °C | 
9 | Cc1ccc(CS(=O)(=O)CCCN2CCOCC2)cc1 [S19, 4-{3-[(4-methylbenzyl)sulfonyl]propyl}morpholine] | 92 to 93 °C | 
10 | Cc1ccc(CS(=O)(=O)CCCN2CCCC2)cc1 [S20, 1-{3-[(4-Methylbenzyl)sulfonyl]propyl}-pyrrolidine] | 84 to 86 °C | 
11 | Cc1ccc(CS(=O)(=O)CCC[N+]2(C)CCOCC2)cc1.[I-] [S22, 4-methyl-4-{3-[(4-methylbenzyl)sulfonyl]propyl}morpholin-4-ium iodide] | 181 to 183 °C | 
12 | O=S(=O)(CCN1CCOCC1)Cc1cccc(F)c1 [S25, 4-{2-[(3-Fluorobenzyl)sulfonyl]ethyl}morpholine] | 74 to 76 °C | 
13 | O=S(=O)(CCN1CCCC1)Cc1cccc(F)c1 [S26, 1-{2-[(3-Fluorobenzyl)sulfonyl]ethyl}pyrrolidine] | 66 to 68 °C | 
14 | CN(C)CCS(=O)(=O)Cc1ccc(F)cc1 [S27, N-{2-[(4-Fluorobenzyl)sulfonyl]ethyl}-N,N-dimethylamine] | 50 to 52 °C | 
15 | O=S(=O)(CCN1CCOCC1)Cc1ccc(F)cc1 [S28, 4-{2-[(4-Fluorobenzyl)sulfonyl]ethyl}morpholine] | 72 to 74 °C | 
16 | O=S(=O)(CCN1CCCC1)Cc1ccc(F)cc1 [S29, 1-{2-[(4-Fluorobenzyl)sulfonyl]ethyl}pyrrolidine] | 76 to 78 °C | 
